The text below walks through data of EP4378525A1, “NON PEPTIDERGIC AGONISTS OF OXYTOCIN RECEPTOR” (Université de Strasbourg, priority 2022, dated 2024).

Like-named read-outs stand apart in the source and are kept apart here.

The Emax is the maximal effect, on the per cent scale that the assay sets. Broadly, the EC50 is the concentration that produces a half-maximal response. The term IC50 denotes the point on the concentration scale where inhibition reaches its midpoint.

One data set deals with T1, oxytocin receptor (Homo sapiens, UniProt P30559).
T1 construct: expressed in transfected cells; host or cells: CHO cell lines
T1 sequence (P30559 1-389): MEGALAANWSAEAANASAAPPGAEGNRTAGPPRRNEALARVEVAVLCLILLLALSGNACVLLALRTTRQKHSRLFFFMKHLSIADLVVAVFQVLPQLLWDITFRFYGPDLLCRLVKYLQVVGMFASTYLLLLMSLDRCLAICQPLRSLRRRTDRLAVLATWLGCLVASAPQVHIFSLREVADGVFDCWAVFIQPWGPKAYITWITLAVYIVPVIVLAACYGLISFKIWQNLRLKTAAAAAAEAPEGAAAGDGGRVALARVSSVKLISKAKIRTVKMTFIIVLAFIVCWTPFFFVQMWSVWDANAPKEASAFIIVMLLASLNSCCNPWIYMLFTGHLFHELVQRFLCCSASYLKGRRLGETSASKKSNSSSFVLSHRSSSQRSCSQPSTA
In words: IP-One IP1 accumulation assay in CHO cell lines expressing oxytocin receptor (agonist activation). The class given is cell-based. The note with it: n=3; for Emax: CHO, percentage of the endogenous agonist maximal stimulation, read-out: OT-R Emax. The method, then: The activation constants (EC50 in nM) were measured in CHO cell lines expressing oxytocin receptor by IP-One IP1 accumulation assay. These values are the mean ± SEM of at least three separate experiments performed in triplicate. […] When there is only a weak stimulation, results are expressed as percentages of the endogenous agonist maximal stimulation at [ligand] = 1 µM (n = 2). Results are not significant (ns) when there is <10% response at [ligand] = 1 µM (n = 2).

For a further data set, the target named is V1A-R (Homo sapiens, UniProt P37288). In words: V1A receptor antagonist assay measured as calcium signal. The format is cell-based. The note with it: n=3; for Ratio V1A/OT: V1A-R IC50 / OT-R EC50; for IC50: antagonist, calcium signal, read-out: V1A-R (Antago) IC50. From the text: Comparison of efficacy as OT receptor agonist (measured as described in example 2), or as VIA receptor antagonist (measured as calcium signal, as follows), has been performed.
V1A-R, sequence (P37288 whole entry, species assumed): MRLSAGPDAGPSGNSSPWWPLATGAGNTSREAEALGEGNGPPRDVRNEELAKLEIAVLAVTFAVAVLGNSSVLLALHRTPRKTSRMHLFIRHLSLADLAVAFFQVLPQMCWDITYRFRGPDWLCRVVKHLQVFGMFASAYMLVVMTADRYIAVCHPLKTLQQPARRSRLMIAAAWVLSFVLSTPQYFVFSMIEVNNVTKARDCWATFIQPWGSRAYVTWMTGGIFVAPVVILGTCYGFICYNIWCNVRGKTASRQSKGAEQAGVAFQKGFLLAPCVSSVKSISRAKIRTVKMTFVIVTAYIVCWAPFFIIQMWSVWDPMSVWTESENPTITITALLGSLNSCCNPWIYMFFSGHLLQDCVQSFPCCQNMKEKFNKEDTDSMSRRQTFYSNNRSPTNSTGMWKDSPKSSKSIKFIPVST

The conditions of data set [1]: in vivo; cited from earlier work.
Setting [2] is: CHO cell lines expressing oxytocin receptor, IP1 accumulation, read-out: OT-R EC50.
[3] abbreviates: selectivity table, measured as described in example 2, read-out: OT-R (Ago) EC50.

For the compound `Cc1cc(C(=O)N2Cc3cnn(C)c3Nc3ccccc32)ccc1CNC(=O)N1C[C@H](N=[N+]=[N-])C[C@H]1C(=S)N(C)C` [Compound 2], on oxytocin receptor, the Emax amounted to 80%. The EC50 on oxytocin receptor (setting [2]) was 39.1 nM.
In the case of `Cc1cc(C(=O)N2Cc3cnn(C)c3Nc3ccccc32)ccc1CNC(=O)N1C[C@@H](n2cc(CO)nn2)C[C@H]1C(=S)N(C)C` [Compound 6], the Emax at oxytocin receptor worked out at 100%. Also, the EC50 at oxytocin receptor (setting [2]) was determined as 0.7 nM. For the same compound, on oxytocin receptor (setting [3]), the EC50 was determined as 1.12 nM. For the same compound, at V1A-R, the “Ratio V1A/OT” value is on record as 117 and the IC50 came out at 131 nM.
For the compound `Cc1cc(C(=O)N2Cc3cnn(C)c3Nc3ccccc32)ccc1CNC(=O)N1C[C@H](n2cc(CN)nn2)C[C@H]1C(=S)N(C)C` [Compound 8], on oxytocin receptor, the Emax was found to be 120%. Also, on oxytocin receptor (setting [2]), the half-maximal effective concentration (EC50) worked out at 33 nM.
As to `Cc1cc(C(=O)N2Cc3cnn(C)c3Nc3ccccc32)ccc1CNC(=O)N1C[C@H](n2cc(COCCOCCO)nn2)C[C@H]1C(=S)N(C)C` [Compound 14], the EC50 at oxytocin receptor (setting [2]) stood at 10 nM.
With `CCCc1cn([C@@H]2C[C@@H](C(=S)N(C)C)N(C(=O)NCc3ccc(C(=O)N4Cc5cnn(C)c5Nc5ccccc54)cc3C)C2)nn1` [Compound 19], the concentration for a half-maximal effect (EC50) on oxytocin receptor (setting [2]) was 31 nM.
On to `Cc1cc(C(=O)N2Cc3cnn(C)c3Nc3ccccc32)ccc1CNC(=O)N1CCC[C@H]1C(=S)N(C)C` [Reference, reference compound], for which, at oxytocin receptor, the Emax turned out to be 96.7%. At oxytocin receptor (setting [2]), the EC50 came to 45.1 nM. On oxytocin receptor (setting [3]), the EC50 amounted to 45.1 nM. Further, on V1A-R, the “Ratio V1A/OT” value is recorded as 7.7 and the concentration for half-maximal inhibition (IC50) worked out at 346 nM.
For the compound oxytocin [OT], the half-life in blood entry in data set [1] is “about 3 minutes”.
